The results in this text go back to ChEMBL document CHEMBL1201862, “PubChem BioAssay data set” (2004).

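Growth conditions: 96-well plates. Treatment: test compound, 48 hours, 5 concentrations. Analysis: linear interpolation between bracketing concentrations; unreached endpoints set to highest concentration. GI50: concentration for 50% inhibition of growth.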 The source made the active and inactive calls. Cut-off read from the data, not from the text of the source: active = GI50 up to about 1.1 µM and inactive = higher. Some results are limits rather than exact numbers.

Some test systems named below: ACHN; BT-549; COLO 205; HCT-15; HOP-62; IGROV-1; MDA-MB-231; MDA-N; NCI-H226; NCI-H522; OVCAR-3; OVCAR-8; RXF 393; SK-MEL-28; SK-MEL-5; SK-OV-3; SNB-75; U-251; UACC-257; SF-539.
Test in all cases: DTP human tumour cell line panel, 48 h

On to `CCOC(=O)[C@H](C)OC(=O)[C@@](C)(NC(=O)c1ccccc1C(=O)OC)[C@@H]1NC=C(C(=O)OC)CS1`, for which the GI50 (commonly the concentration at which growth is held to half of that of the control) was > 100 µM (inactive) in the experiment with ACHN; > 100 µM (inactive) with BT-549; > 100 µM (inactive) in the experiment with COLO 205; greater than 100 µM in the experiment with HCT-15; > 100 µM (inactive) in the experiment on HOP-62; 80 µM (inactive) in the experiment with IGROV-1. In addition, the GI50 is > 100 µM (inactive) with MDA-MB-231; 21.9 µM (inactive) in the experiment on MDA-N; > 100 µM (inactive) with NCI-H226; > 100 µM (inactive) with NCI-H522; > 100 µM (inactive) in the experiment with OVCAR-3; > 100 µM (inactive) in the experiment with OVCAR-8. Further, the GI50 with RXF 393 was 97.9 µM (inactive); with SK-MEL-28, > 100 µM (inactive); with SK-MEL-5, 74.1 µM (inactive); in the experiment on SK-OV-3, > 100 µM (inactive); in the experiment with SNB-75, 25.4 µM (inactive); in the experiment on U-251, > 100 µM (inactive). Further, in the experiment with UACC-257, the GI50 is > 100 µM (inactive).
On to `CN(C)c1ccc(C(=NN)c2ccc(N(C)C)cc2)cc1`, for which the GI50 with ACHN is 8.3 µM (inactive); in the experiment on BT-549, 1.77 µM (inactive); with COLO 205, 0.344 µM (active); in the experiment with HCT-15, 0.229 µM; with HOP-62, 1.9 µM (inactive); with IGROV-1, 0.746 µM (active). Moreover, the GI50 in the experiment on MDA-MB-231 was 0.526 µM (active); with MDA-N it was 0.0818 µM (active); in the experiment on NCI-H226, 3.52 µM (inactive); in the experiment on NCI-H522, 0.25 µM (active); with OVCAR-3, 0.798 µM (active); in the experiment with OVCAR-8 it was 2.52 µM (inactive). In addition, the GI50 is 1.98 µM (inactive) in the experiment on RXF 393; > 66.1 µM (inactive) in the experiment with SK-MEL-28; 0.447 µM (active) with SK-MEL-5; 1.84 µM (inactive) with SK-OV-3; 0.401 µM (active) in the experiment with SNB-75; 0.486 µM (active) in the experiment on U-251. Also, the GI50 in the experiment on UACC-257 was 0.203 µM (active).
Turning to `O=c1c2cc(Br)ccc2oc2ccc(Br)cc12`, the GI50 in the experiment with ACHN was > 100 µM (inactive); in the experiment on BT-549, > 100 µM (inactive); with COLO 205, > 100 µM (inactive); with HCT-15, greater than 100 µM; in the experiment with IGROV-1, > 100 µM (inactive); with MDA-MB-231, > 100 µM (inactive). The GI50 in the experiment on MDA-N was > 100 µM (inactive); in the experiment with NCI-H226, > 100 µM (inactive); in the experiment with NCI-H522 it was > 100 µM (inactive); with OVCAR-3 it was 71.8 µM (inactive); in the experiment on OVCAR-8, > 100 µM (inactive); in the experiment with RXF 393, > 100 µM (inactive). Besides, the GI50 is > 100 µM (inactive) with SF-539; > 100 µM (inactive) in the experiment with SK-MEL-28; > 100 µM (inactive) in the experiment on SK-MEL-5; 24.7 µM (inactive) in the experiment with SNB-75; 64.6 µM (inactive) in the experiment on U-251; > 100 µM (inactive) in the experiment on UACC-257.
As to `O=C(/C=C/c1ccc(O)c(O)c1)OCCc1cccc2ccccc12`, the GI50 in the experiment on ACHN was 3.78 µM (inactive); in the experiment on BT-549, 7.85 µM (inactive); with COLO 205, 5.69 µM (inactive); with HCT-15 it was 1.28 µM; in the experiment on IGROV-1, 2.76 µM (inactive); with MDA-MB-231, 2.33 µM (inactive). Further, the GI50 in the experiment with MDA-N was 1.87 µM (inactive); with NCI-H226, 22 µM (inactive); in the experiment on NCI-H522 it was 0.948 µM (active); in the experiment with OVCAR-3, 2.32 µM (inactive); with OVCAR-8, 5.07 µM (inactive); in the experiment with RXF 393 it was 9.44 µM (inactive). In addition, the GI50 in the experiment with SF-539 was 4.79 µM (inactive); in the experiment on SK-MEL-28, 4.15 µM (inactive); in the experiment with SK-MEL-5, 2.24 µM (inactive); in the experiment on SNB-75, 2.52 µM (inactive); in the experiment with U-251, 6.15 µM (inactive); in the experiment on UACC-257, 11.1 µM (inactive).
`CC(C)(C)OC(=O)n1c(Cl)c(C=O)c2ccccc21`: the GI50 is 23.9 µM (inactive) in the experiment on ACHN; 21.3 µM (inactive) in the experiment on BT-549; 56.4 µM (inactive) in the experiment on COLO 205; 27.1 µM in the experiment with HCT-15; 20.6 µM (inactive) in the experiment with HOP-62; 28.2 µM (inactive) in the experiment on IGROV-1. Moreover, the GI50 in the experiment with MDA-MB-231 was 33.3 µM (inactive); with MDA-N it was 44.5 µM (inactive); with NCI-H522, > 100 µM (inactive); in the experiment with OVCAR-3 it was 19.4 µM (inactive); with OVCAR-8 it was 28.1 µM (inactive); with SF-539 it was 30.1 µM (inactive). In addition, the GI50 is 39.9 µM (inactive) in the experiment on SK-MEL-28; 43.5 µM (inactive) in the experiment with SK-MEL-5; > 100 µM (inactive) in the experiment with SK-OV-3; 68.5 µM (inactive) with SNB-75; 35.6 µM (inactive) in the experiment with U-251; 28.8 µM (inactive) in the experiment on UACC-257.
On to `Cc1ccc2c(c1)C(=O)/C(=C\c1ccccc1)CCS2(=O)=O`, for which the GI50 is 11.4 µM (inactive) in the experiment on ACHN; 6.68 µM (inactive) with BT-549; 17.4 µM (inactive) in the experiment with COLO 205; 4.84 µM with HCT-15; 20.9 µM (inactive) in the experiment on HOP-62; 9.68 µM (inactive) with IGROV-1. Further, the GI50 in the experiment on MDA-MB-231 is 12.7 µM (inactive); in the experiment with MDA-N it was 16.9 µM (inactive); in the experiment with NCI-H226, 15.7 µM (inactive); in the experiment with NCI-H522, 4.36 µM (inactive); in the experiment with OVCAR-3, 13.1 µM (inactive); in the experiment on OVCAR-8, 11.6 µM (inactive). In addition, the GI50 in the experiment on SF-539 is 10.3 µM (inactive); with SK-MEL-28, 18.5 µM (inactive); in the experiment with SK-MEL-5 it was 11.6 µM (inactive); in the experiment on SK-OV-3 it was 15.9 µM (inactive); with SNB-75 it was 20.6 µM (inactive); with U-251, 4.69 µM (inactive). Besides, the GI50 with UACC-257 is 12.3 µM (inactive).
For `CCCCN1CCC(O)(c2cc(C(=O)O)[nH]c2-c2cc(C)no2)C1=O` (stereo unspecified), the GI50 in the experiment on ACHN is > 100 µM (inactive); with BT-549 it was > 100 µM (inactive); in the experiment with COLO 205, > 100 µM (inactive); in the experiment with HCT-15 it was greater than 100 µM; in the experiment on HOP-62, > 100 µM (inactive); in the experiment with IGROV-1, > 100 µM (inactive). Also, the GI50 in the experiment with MDA-MB-231 is > 100 µM (inactive); with MDA-N it was > 100 µM (inactive); in the experiment on NCI-H522 it was > 100 µM (inactive); in the experiment with OVCAR-3, > 100 µM (inactive); in the experiment with OVCAR-8, > 100 µM (inactive); with RXF 393 it was 43.5 µM (inactive). The GI50 in the experiment on SK-MEL-28 is > 100 µM (inactive); in the experiment with SK-MEL-5, > 100 µM (inactive); in the experiment on SK-OV-3, > 100 µM (inactive); with SNB-75, 49.9 µM (inactive); in the experiment with U-251, > 100 µM (inactive); with UACC-257, > 100 µM (inactive).
As to `Cc1nc2ccc(Cl)cc2c2c1CCO2`, the GI50 in the experiment with ACHN was 86.5 µM (inactive); in the experiment with BT-549 it was 92.9 µM (inactive); in the experiment on COLO 205 it was 83.9 µM (inactive); with HCT-15, 90.2 µM; with HOP-62, > 100 µM (inactive); in the experiment with IGROV-1, 56.8 µM (inactive). Also, the GI50 is 43.5 µM (inactive) in the experiment with MDA-MB-231; 36.3 µM (inactive) in the experiment on MDA-N; 94.4 µM (inactive) in the experiment with NCI-H226; > 100 µM (inactive) in the experiment with NCI-H522; 91.6 µM (inactive) in the experiment with OVCAR-3; 99.5 µM (inactive) with OVCAR-8. The GI50 was 24.4 µM (inactive) with RXF 393; 46.5 µM (inactive) in the experiment on SF-539; > 100 µM (inactive) in the experiment on SK-MEL-28; 68.5 µM (inactive) in the experiment on SK-MEL-5; 69.3 µM (inactive) in the experiment on SNB-75; > 100 µM (inactive) with U-251. Further, the GI50 in the experiment with UACC-257 was > 100 µM (inactive).
For the compound `NS(=O)(=O)c1ccc(NS(=O)(=O)c2ccc(NC(=O)N(c3ccccc3)c3ccccc3)cc2)cc1`, the GI50 in the experiment with ACHN is > 100 µM (inactive); with BT-549 it was 87.1 µM (inactive); in the experiment with COLO 205 it was > 100 µM (inactive); with HCT-15, greater than 100 µM; in the experiment with HOP-62, 52.8 µM (inactive); in the experiment on IGROV-1, 59 µM (inactive). In addition, the GI50 with MDA-MB-231 was > 100 µM (inactive); in the experiment on MDA-N, 32.3 µM (inactive); in the experiment with NCI-H226, > 100 µM (inactive); in the experiment with NCI-H522, 30.5 µM (inactive); in the experiment on OVCAR-3, 19.1 µM (inactive); with OVCAR-8, > 100 µM (inactive). The GI50 with RXF 393 was 21.9 µM (inactive); in the experiment with SK-MEL-28, > 100 µM (inactive); with SK-MEL-5, 68.2 µM (inactive); with U-251, > 100 µM (inactive); in the experiment with UACC-257 it was 77.4 µM (inactive).
With `CCCCCCCCCCCCCCCCP(=O)(O)OP(=O)(O)OCC1OC(n2cnc3c(N)ncnc32)C(O)C1O` (stereo unspecified), the GI50 is 26.7 µM (inactive) in the experiment on ACHN; 42.4 µM (inactive) with BT-549; 32.7 µM (inactive) in the experiment with COLO 205; 23.8 µM in the experiment with HCT-15; 19.5 µM (inactive) with HOP-62; 16.3 µM (inactive) in the experiment on IGROV-1. The GI50 is 35.1 µM (inactive) in the experiment on MDA-MB-231; 43.4 µM (inactive) with MDA-N; 20.9 µM (inactive) in the experiment with NCI-H226; 22.1 µM (inactive) with NCI-H522; 32.2 µM (inactive) in the experiment with OVCAR-3; 22 µM (inactive) in the experiment with OVCAR-8. The GI50 was 19.1 µM (inactive) with SF-539; 35.7 µM (inactive) in the experiment on SK-MEL-28; 29 µM (inactive) with SK-MEL-5; 28.6 µM (inactive) in the experiment with SK-OV-3; 20.5 µM (inactive) in the experiment with SNB-75; 20 µM (inactive) in the experiment with U-251. For the same compound, the GI50 with UACC-257 was 23.7 µM (inactive).
Turning to `CCSC1=C(C#N)C2(CCCCC2)C2=C(O)CC(C)(C)CC2=N1`, the GI50 with ACHN is 24.7 µM (inactive); in the experiment with BT-549 it was 14.2 µM (inactive); in the experiment on COLO 205 it was > 100 µM (inactive); in the experiment on HCT-15, 64.7 µM; with IGROV-1, 26.5 µM (inactive); in the experiment with MDA-MB-231, 45.3 µM (inactive). The GI50 with MDA-N was > 100 µM (inactive); in the experiment with NCI-H226, 53.6 µM (inactive); in the experiment on NCI-H522, 39.4 µM (inactive); in the experiment with OVCAR-8, 36.5 µM (inactive); in the experiment on RXF 393 it was 52.7 µM (inactive); in the experiment with SF-539, 51.8 µM (inactive). For the same compound, the GI50 was 56.8 µM (inactive) in the experiment on SK-MEL-28; 40.9 µM (inactive) with SK-MEL-5; 21.9 µM (inactive) in the experiment with SNB-75; 29.9 µM (inactive) in the experiment with U-251; 5.96 µM (inactive) with UACC-257.
